# Test results from paper PMC12715507, “CARF-HAD phosphatase effectors provide immunity during the type III-A CRISPR–Cas response” (Nucleic Acids Research, 2025).
# Target: T1, BbChp
# T1 construct: CARF domain (307–528), N-terminal 6xHis
# Test: thermal shift assay (DSF) titration, Tm […] to […] °C
# Format: binding, Bacteroidales bacterium
smiles,measurement,value
Nc1ncnc2c1ncn2[C@@H]1O[C@@H]2COP(=O)(O)O[C@H]3[C@@H](O)[C@H](n4cnc5c(N)ncnc54)O[C@@H]3COP(=O)(O)O[C@H]3[C@@H](O)[C@H](n4cnc5c(N)ncnc54)O[C@@H]3COP(=O)(O)O[C@H]3[C@@H](O)[C@H](n4cnc5c(N)ncnc54)O[C@@H]3COP(=O)(O)O[C@H]2[C@H]1O [cA4],Kd,273 nM
